Laboratory results published in publication PMC8955265, “Systematic Discovery of FBXW7-Binding Phosphodegrons Highlights Mitogen-Activated Protein Kinases as Important Regulators of Intracellular Protein Levels” (International Journal of Molecular Sciences, 2022).
Where a SMILES comes first, the peptide text is derived from it. [ ]: non-standard residue; d: D form. pT = C[C@@H](OP(=O)(O)O)[C@H](N)C(=O)O; pS = N[C@@H](COP(=O)(O)O)C(=O)O

Key:
Skp1-FBXW7 complex = molecular target: T1, Skp1-FBXW7 complex (Homo sapiens, UniProt P63208+Q969H0); test: Fluorescence polarization competitive protein-peptide binding assay; conditions: for binding affinity to purified FBXW7 in vitro: FP based quantitative in vitro binding assay, result in words; for Kd: FP competition of unlabeled peptide against 50 nM CF-labeled CCNE peptide at ~60-80% complex formation, 20 mM Tris pH 8.0, 100 mM NaCl, 0.05% Brij35P, 2 mM TCEP, value with error
T1 construct: human FBXW7 (263-707) with an N-terminal hexa-histidine (His6) tag; His6 (N, cleaved yes); made in house; host or cells: E. coli Rosetta (DE3)
T1 sequence (Q969H0 263-707): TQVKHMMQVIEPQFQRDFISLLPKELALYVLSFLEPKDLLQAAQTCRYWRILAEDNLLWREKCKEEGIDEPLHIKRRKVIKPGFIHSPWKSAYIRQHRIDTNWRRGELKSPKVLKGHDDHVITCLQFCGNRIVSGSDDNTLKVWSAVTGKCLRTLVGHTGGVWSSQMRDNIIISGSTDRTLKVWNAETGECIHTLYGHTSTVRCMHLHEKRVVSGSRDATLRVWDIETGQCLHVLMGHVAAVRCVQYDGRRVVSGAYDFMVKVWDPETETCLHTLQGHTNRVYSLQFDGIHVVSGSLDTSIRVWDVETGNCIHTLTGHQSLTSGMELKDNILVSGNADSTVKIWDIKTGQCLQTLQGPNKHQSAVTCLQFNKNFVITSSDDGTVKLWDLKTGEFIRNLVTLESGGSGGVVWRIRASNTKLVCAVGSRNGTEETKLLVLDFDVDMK
T1 sequence (P63208 1-149 partner limits assumed): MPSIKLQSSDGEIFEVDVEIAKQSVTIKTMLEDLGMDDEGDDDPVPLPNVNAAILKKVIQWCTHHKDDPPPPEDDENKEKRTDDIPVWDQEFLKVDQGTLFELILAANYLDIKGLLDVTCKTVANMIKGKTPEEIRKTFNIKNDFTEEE
Experimental: Truncated Skp1 (1-149) and human FBXW7 (263-707) with an N-terminal hexa-histidine (His6) tag were cloned into a bicistronic plasmid (pMG950) and were co-expressed in E. coli Rosetta (DE3) strain. The Skp1-FBXW7 complex was purified using affinity, anion exchange, and gel filtration chromatography. The DNA expression plasmid was transformed into E. coli Rosetta (DE3) strain and grown in LB until OD600 = 0.5, protein expression was induced with 100 µM isopropyl-β-d-1-thigalatopyaranoside (IPTG) overnight at 18 °C. The cell pellet was lysed, and the recombinant protein was purified using Ni-NTA agarose beads. Before further purification the His6-tag was removed by using the TEV protease and then the protein complex was further purified using anion exchange chromatography twice, first with a Resource Q and then with a Mono Q column (pH = 8). Finally, the complex was subjected to size-exclusion chromatography in 20 mM Tris, pH = 8, 150 mM NaCl, and 1 mM DTT using a Superdex200 10/300 column (GE Healthcare, Chicago, IL, USA). The eluted fractions were pooled together and were supplemented with 10% glycerol and 2 mM TCEP before concentration and storage.
Fluoresce polarization (FP) based protein–peptide binding affinity measurements were carried out using 50 nM carboxyfluorescein (CF) labeled CCNE peptide (CF-PSGLLpTPPQpSGKKQ) and data were fit to a direct or a competitive binding equation using OriginPro 2018 as described earlier. For the direct measurements the concentration of Skp1-FBXW7 complex was increased in a titration experiment and then the binding affinity (Ki) of the unlabeled peptide was determined by titrating the Skp1-FBXW7: labelled peptide complex sample, at a concentration corresponding to ~60–80% complex formation, with increasing amounts of unlabeled peptide. All the FP measurements were performed in 20 mM Tris (pH 8.0), 100 mM NaCl, 0.05% Brij35P, and 2 mM TCEP using a Cytation^TM 3 (BioTek Instruments) plate reader (384-well plates in 20 µL binding reaction volume). Peptides were chemically synthesized and were ordered from GenScript.

FBXW7 = test: Ratiometric EGFP/DsRed protein degradation assay with degron probes; format: cell-based, human; conditions: putative degron motif in EGFP-fused probe with AAKG2 MAPK docking motif; HEK293T, 48 h after transfection, EGFP/DsRed ratio with and without FBXW7 plasmid; search cycles 1-4
Description: In order to be able to test putative phosphodegron motifs, a ratiometric protein level monitoring method was adapted to monitor MAPK controlled FBXW7 mediated protein degradation. Briefly, intact DsRed and an EGFP-chimera were expressed in HEK293T cells in equal amounts from an expression plasmid, giving an EGFP/DsRed fluorescence ratio close to one under non-degrading conditions. EGFP was fused to a probe comprised of a putative degron sequence and a known MAPK binding docking motif. EGFP signal is expected to diminish faster than DsRed in cells with more FBXW7 if the probe responded to degradation.
We started out from an intentionally general consensus motif of FBXW7 degrons, inspired by the liberal [TS]P..[TS]P pattern defined for yeast Cdc4 substrates, and scanned the human disordered part of the proteome using SliMSearch4 (the disorder score cut-off was 0.4 and flank length was 5). In all, 22 motifs from this list were subjectively chosen and tested in the ratiometric degradation assay giving only 5 positives (see Supplementary Table S1). Based on the results of this first round, by taking information both from the identified positives and negatives, the consensus motif definition was narrowed to requiring a proline at P + 2, but motifs were allowed to have a phospho-mimicking residue (D or E) at P + 4 because it had been formerly reported that this second phosphorylatable residue may be replaced by aspartate or glutamate. […] In the third round, hydrophobic amino acids were more strictly required at positions −1/−2 and P − 1/2/3 positions were further narrowed and P + 4 position was relaxed based on the identified negatives, which gave a higher hit rate (4 out of 6). This third round gave functional motifs at a good rate, but the used motif definition was very restrictive compared to other known motifs. Finally, in the fourth round, we gave up using an optimal consensus and established the positional relaxation model. […] Hits on this final, most predictive list are presented in Supplementary Table S2. All entries were filtered for motif locations by UniProt annotations, discarding all enzyme-inaccessible (e.g., extracellular) instances. Motifs that had any overlapping PFAM domain indicated were manually assessed using the AlphaFold EBI website. Out of these, only motifs that were highly accessible and located outside of confidently predicted folded domains were kept. We also added kinase consensus compatibility to every motif and the number of experiments where phosphorylation could be detected from PhosphoSitePlus.
The chimera degron module was ordered from IDT as gene Block (gBlock). It consisted of a coiled coil dimerization motif (GCN4: EELLSKNYHLENEVARLKK) to increase sensitivity by allowing multivalent binding, a MAPK binding docking motif (AAKG2: KKNASQKRRSLRVHIPDL), and the CycECO degron motif. The motifs were separated by Gly-Ser-Asn linkers and the gBlock was designed so that the motifs could be easily changed by using unique sets of restriction endonucleases. The gBlock was sub-cloned into the Gateway pENTR4 entry plasmid (Thermo Fisher, Waltham, MA, USA) using restriction enzymes (SalI and NotI). The pENTR4-chimera and the destination plasmid (MSCV-CMV-DsRed-IRES-EGFP-DEST from Addgene; 41941), [28]) were subjected to gateway cloning using LR clonase II enzyme (Invitrogen) to obtain the first DsRed-EGFP-chimera DNA construct containing the cycECO degron. Oligonucleotides corresponding to different degron sequences and docking motifs were ligated into the DsRed-EGFP-chimera DNA construct. The list of all the oligonucleotides used for cloning is provided in Supplementary Table S3. pcDNA3-FLAG-FBXW7α was a kind gift from Michael Pagano (New York University). The FBXW7 arginine mutant (Arg mutant: R465C; R479Q; R505L) was created using two-step PCR and cloned into the pcDNA3-FLAG plasmid. […]

Molecule	binding affinity to purified FBXW7 in vitro (Skp1-FBXW7 complex)	Kd (Skp1-FBXW7 complex) [nM]	Outcome (FBXW7)
CC(C)C[C@H](NC(=O)[C@@H](NC(=O)[C@H](CO)NC(=O)[C@H](CC(N)=O)NC(=O)[C@@H](N)CO)C(C)C)C(=O)N[C@@H](CC(N)=O)C(=O)N[C@H](C(=O)N1CCC[C@H]1C(=O)N1CCC[C@H]1C(=O)N[C@H](C(=O)N[C@H](C(=O)N1CCC[C@H]1C(=O)N[C@@H](CCC(=O)O)C(=O)N[C@@H](CO)C(=O)N1CCC[C@H]1C(=O)O)[C@@H](C)OP(=O)(O)O)[C@@H](C)O)[C@@H](C)OP(=O)(O)O [ARID4B] (H-SNSVLN[pT]PPT[pT]PESP-OH)	low nanomolar	17.7 ± 0.6	
CC(C)C[C@H](NC(=O)[C@@H]1CCCN1C(=O)[C@H](CCCCN)NC(=O)[C@H](Cc1ccccc1)NC(=O)CNC(=O)[C@@H](N)CO)C(=O)N[C@H](C(=O)N1CCC[C@H]1C(=O)N1CCC[C@H]1C(=O)N[C@H](C(=O)N[C@H](C(=O)N1CCC[C@H]1C(=O)N[C@@H](CC(C)C)C(=O)N[C@@H](CO)C(=O)N1CCC[C@H]1C(=O)O)[C@@H](C)OP(=O)(O)O)[C@@H](C)O)[C@@H](C)OP(=O)(O)O [ETV5] (H-SGFKPL[pT]PPT[pT]PLSP-OH)	low nanomolar	16.1 ± 2.1	
CC[C@H](C)[C@H](NC(=O)[C@@H]1CCCN1C(=O)[C@@H]1CCCN1C(=O)[C@@H](NC(=O)[C@@H](NC(=O)[C@@H]1CCCN1C(=O)[C@@H]1CCCN1C(=O)[C@@H](NC(=O)[C@H](CC(C)C)NC(=O)[C@H](CO)NC(=O)CNC(=O)[C@H](CO)NC(=O)[C@H](CO)NC(=O)[C@@H](N)Cc1c[nH]cn1)[C@@H](C)OP(=O)(O)O)C(C)C)[C@@H](C)OP(=O)(O)O)C(=O)N[C@H](C(=O)O)[C@@H](C)O [JAZF1] (H-HSSGSL[pT]PPV[pT]PPIT-OH)	low nanomolar	29.7 ± 3.2	
CSCC[C@H](NC(=O)[C@@H]1CCCN1C(=O)[C@@H](NC(=O)[C@H](CCC(=O)O)NC(=O)[C@@H]1CCCN1C(=O)[C@@H]1CCCN1C(=O)[C@@H](NC(=O)[C@H](Cc1ccc(O)cc1)NC(=O)[C@H](CC(C)C)NC(=O)[C@H](CC(N)=O)NC(=O)[C@H](CC(C)C)NC(=O)[C@H](CCCCN)NC(=O)[C@@H](N)Cc1ccccc1)[C@@H](C)OP(=O)(O)O)[C@@H](C)OP(=O)(O)O)C(=O)N[C@@H](CCC(=O)O)C(=O)N1CCC[C@H]1C(=O)O [KAT6B] (H-FKLNLY[pT]PPE[pT]PMEP-OH)	low nanomolar	2.8 ± 0.2	
CSCC[C@H](NC(=O)CNC(=O)[C@H](Cc1c[nH]cn1)NC(=O)[C@@H](N)[C@@H](C)O)C(=O)N[C@@H](CCSC)C(=O)N[C@@H](CC(C)C)C(=O)N[C@H](C(=O)N1CCC[C@H]1C(=O)N1CCC[C@H]1C(=O)N[C@@H](CO)C(=O)N[C@@H](COP(=O)(O)O)C(=O)N1CCC[C@H]1C(=O)N[C@@H](CC(C)C)C(=O)N[C@@H](CCC(=O)O)C(=O)N[C@@H](CC(C)C)C(=O)O)[C@@H](C)OP(=O)(O)O [KLF4] (H-THGMML[pT]PPS[pS]PLEL-OH)	low nanomolar	11 ± 1	
CSCC[C@H](NC(=O)[C@@H]1CCCN1C(=O)[C@@H]1CCCN1C(=O)[C@@H](NC(=O)[C@@H]1CCCN1C(=O)[C@H](CC(N)=O)NC(=O)CNC(=O)[C@@H]1CCCN1C(=O)[C@@H](NC(=O)[C@@H]1CCCN1)C(C)C)[C@@H](C)OP(=O)(O)O)C(=O)N[C@H](C(=O)N1CCC[C@H]1C(=O)NCC(=O)N[C@@H](CO)C(=O)N[C@@H](CO)C(=O)O)[C@@H](C)OP(=O)(O)O [ZMIZ1] (H-PVPGNP[pT]PPM[pT]PGSS-OH)	low nanomolar	52.3 ± 2.6	
LGPPPGLLTPPVATELSQN [CCAR2, synthetic peptide of the CCAR2 motif, P + 4 nonphospho class]	low micromolar		Positive (tested positive, where +FBXW7/control protein level ratio was lower than 1)
TANLPPSPPPSPASEQT [MAP2, putative FBXW7 degron motif tested as EGFP-fused degradation probe]			Positive (tested positive, where +FBXW7/control protein level ratio was lower than 1)
TCPNSPSTPPSTPSPRV [SOS2, putative FBXW7 degron motif tested as EGFP-fused degradation probe]			Negative
TEPRSSPSPPPSPTEPE [CUX2, putative FBXW7 degron motif tested as EGFP-fused degradation probe]			Negative
TTVTPPGTPPMR [KSR2-b, putative FBXW7 degron motif tested as EGFP-fused degradation probe]			Negative
VAVSPTPPVSPEVRST [CEP164, putative FBXW7 degron motif tested as EGFP-fused degradation probe]			Negative
VKRTLPSPPPEEAHLP [BSN, putative FBXW7 degron motif tested as EGFP-fused degradation probe]			Negative
